Data from patent US10016382B2, “Method for decreasing skeletal muscle damage and/or oxidative stress in mammals” (LONZA INC., priority 2014, dated 2018).
“And” between values parts separate entries of the source, which are not always exact repeats. Equal values may be shown once.

Legend:
Format in all cases: in vivo, dog
[1] = Daily food consumption, Example 1; settings: Ex.1, 250 mg/d; for Daily Food Intake: mean ± SEM
Protocol: Experimental Design: Forty Labrador Retrievers (labs) ranging in age from 1 to 3.5 years were incorporated into a two dietary treatment study. The two dietary treatments were based on feeding the test dogs the same low L-carnitine diet but adding 250 mg per day of L-carnitine to the L-carnitine group. Each of the L-carnitine dogs received the daily 250 mg of L-carnitine mixed with an additional 3.75 g sugar. The control dogs received 4 g of sugar each day. Twenty labs of equal gender, age, excitement level, frame size, body weight and genetic background were utilized for each of the two treatments. The labs utilized for the nutrition study were from a minimum of 6 different bitches. The lean body mass of the 40 test dogs was determined by scanning with the DEXA and the final key component utilized to assure equal groups. Prior to the start of the study, the labs were acclimated to the experimental diets for a minimum of 10 days. The labs were weighed at the beginning of the 90 day study and weighed every two weeks throughout the study. Feed consumption was determined daily by weighing feed provided and feed refusals. The quantity of food provided each dog on a daily basis was adjusted based on maintaining a minimum initial starting body weight throughout the study. The dog food was provided by Lonza Inc. and was equal to the minimum guaranteed analysis of Gold N Pro (MFA of Missouri) that the performance dogs had been consuming prior to the start of the study (Table 1).

Labrador Retrievers = test: Energy expenditure on treadmill (Oxymax open-circuit calorimeter), Example 2 part three; settings: for Max energy expenditure / Mean energy expenditure: females
Protocol: Sixteen Labrador Retrievers ranging in age from 1.5 to 3 years were fed low carnitine basal diets with and without added L-carnitine for a 37 week period that included part one and two of the study. Eight (4 male and 4 female) of the test L-carnitine dogs were each fed 3.75 g sugar and 250 mg of L-carnitine, while the other eight dogs (4 male and 4 female) were fed only 4 g of sugar each day for the experimental period. The sixteen test dogs were fed the same diet for parts one, two, and three of the study. During part three of the study, the 16 test dogs were exclusively exercised on the industry sized canine treadmill. Initial Oxymax data was developed for each of the test dogs at various times and speeds in order to determine appropriate speeds on the treadmill required to achieve maximum VO2 concentration. The dogs were run for 15 minutes at 6.5 mph to determine VO2 max. The 16 test dogs were then ran at 50% VO2 max (equivalent to 4 mph) on the treadmill for 30 minutes to determine total energy expenditure (heat production). The system used to acquire information on volume of oxygen consumption and energy expenditure was an Open-Circuit calorimeter, which employed air from the surrounding environment. A mask specially designed for dogs was used to recover the gas sample and ventilate the dog. A small sample was drawn for gas analysis and dried to assure that the readings were made in a sample that was not under the influence of water vapor air exiting the chamber. The O2 and CO2 sensors were connected to software, and instant values of O2 and CO2 were measured. The 16 test dogs (8 L-carnitine dogs, 4 male and 4 female, and 8 control dogs, 4 male and 4 female) were exercised at a warm up speed of 2 mph for 5 minutes prior to running at VO2 max for 15 minutes at 6.5 mph. The next week, the test dogs ran again at a warm up speed of 2 mph for 5 minutes and then at 50% VO2 max for 30 minutes at 4 mph. Energy expenditure was calculated using the formula for dogs (EE (kcal/d)=3.94 VO2+1.11 V CO2) (Weir, […]). The maximum and mean energy expenditure was also calculated. Energy expenditure was reported at Kcal/metabolic body weight (Kg^0.75)/d as normally expressed in the literature for dogs.

skeletal protein = test: Fractional synthesis rate (FSR) of skeletal protein, 15N Phe infusion, Example 2 part two
Protocol: At the end of the 60 day training program, 24 of the dogs (12 resting and 12 running) were infused with a bolus dose of 15N Phe. […] Forty-five minutes after infusion, a 5 mm Bergstrom muscle biopsy needle was used to take a biopsy of the biceps femoris muscle. The muscle samples were quickly frozen in liquid nitrogen and placed in a -80° C. freezer for later analysis]. Twenty-four hours after the resting dogs were infused with 15N Phe, the remaining 12 dogs (6 non-carnitine; 3 male and 3 female and 6 L-carnitine; 3 male and 3 female) were run for a 15 mile endurance run. Following a 30 minute period of measured physiological recovery (heart rate and body temperature), test dogs that completed the 15 mile run were infused with a 2% 15N Phe solution as described above; muscle biopsies were taken 45 minutes after infusion. To process the samples, the acid-soluble fraction containing free amino acids was removed by addition of 2% (w/v) perchloric acid. After homogenization, samples were centrifuged at 3,000×g, and the supernatant, containing free amino acids, was removed. The protein precipitate was washed three times with 2% perchloric acid before being hydrolyzed in 6N HCL. The supernatant and precipitate, respectively, were then run through an ion-exchange column packed with Dowex 50WX8-200. Phenylalanine and 3-methylhistidine (3-MH) were eluted with 2 mL of 4N NH4OH and 1 mL of nanopure H2O into a new vial and then dried under vacuum. The tert-butyldimethylsilyl (tBDMS) derivative was formed by adding 800 μL of C2CH3CN-MTBSTFA (1:1) and incubating at 110° C. for 60 minutes. Analysis of the protein precipitate of muscle samples and free amino acids were carried out on an Agilent 7890A GC system attached to an Agilent 6975C mass spectrometer. Helium was used as the carrier gas at 1 mL/min. A 1 μL volume was injected into the GC/MS in splitless mode. Oven temperature began at 150° C. and increased by 50° C./min until reaching 200° C., after which the temperature was increased by 20° C./min until reaching 270° C. The temperature was held at 270° C. for 5.5 minutes. The mass spectrometer was operated under EI and SIM modes. The 394 and 395 m/z fragments, which represented the M and M+1 fragments of phenylalanine, were monitored.

[2] = Ex.2 part three, 250 mg/d, 6.5 mph (VO2 max)
[3] = Ex.2 part three, 250 mg/d, 50% VO2 max (4 mph, 30 min)
[4] = combined speeds 4.0 and 6.5 (50% VO2 Max and VO2 Max), diet main effect, both genders
[5] = combined speeds 4.0 and 6.5 (50% VO2 Max and VO2 Max), female dogs
[6] = combined speeds 4.0 and 6.5 (50% VO2 Max and VO2 Max), male dogs
[7] = treadmill speed 4 for 30 min (50% VO2 Max), diet main effect, both genders
[8] = treadmill speed 4 for 30 min (50% VO2 Max), female dogs
[9] = treadmill speed 4 for 30 min (50% VO2 Max), male dogs
[10] = treadmill speed 6.5 for 15 min (VO2 Max), diet main effect, both genders
[11] = treadmill speed 6.5 for 15 min (VO2 Max), female dogs
[12] = treadmill speed 6.5 for 15 min (VO2 Max), male dogs

## C[N+](C)(C)C[C@H](O)CC(=O)[O-] [L-carnitine]
[1]; Week 2
  Daily Food Intake: 723 ± 26 n = 20 g
[1]; Week 4
  Daily Food Intake: 636 ± 30 n = 20 g
[1]; Week 5
  Daily Food Intake: 639 ± 27 n = 20 g
[1]; Week 6
  Daily Food Intake: 651 ± 26 n = 20 g
[1]; Week 7
  Daily Food Intake: 626 ± 24 n = 20 g
[1]; Week 8
  Daily Food Intake: 626 ± 24 n = 20 g
[1]; Week 9
  Daily Food Intake: 622 ± 26 n = 20 g
[1]; Week 10
  Daily Food Intake: 570 ± 25 n = 20 g
[1]; Week 11
  Daily Food Intake: 577 ± 24 n = 20 g
[1]; Week 13
  Daily Food Intake: 555 ± 20 n = 20 g
[1]; over the entire 13 wk period
  Food consumption vs control: not significantly different
[1]; overall Average of 13 wk study
  Daily Food Intake: 626 g and 626 ± 24 n = 20 g
Labrador Retrievers; Ex.2 part three, 250 mg/d, female running at 50% of VO2 Max
  Additional heat expenditure vs non-L-carnitine diet: 122 kcal/kg BW^0.75/d
Labrador Retrievers; [2]
  Max energy expenditure: 961 kcal/kgBW^0.75/d
  Mean energy expenditure: 815 kcal/kgBW^0.75/d
Labrador Retrievers; [3]
  Max energy expenditure: 794 kcal/kg^0.75/d
  Mean energy expenditure: 598 kcal/kg^0.75/d
Labrador Retrievers; Ex.2 part three, 250 mg/d, males, Tables 35 and 36
  Max and mean energy expenditure vs low carnitine dogs: not significantly different
Labrador Retrievers; Ex.2 part three, 250 mg/d, working female running at 50% VO2 Max (4 mph) for one hour
  Quantity of low Carnitine basal food saved: 15.18 g
Labrador Retrievers; [4]
  Max EE: 793 Kcal/Kg^0.75/d
  Mean EE: 675 Kcal/Kg^0.75/d
Labrador Retrievers; [5]
  Max EE: 838 Kcal/Kg^0.75/d
  Mean EE: 679 Kcal/Kg^0.75/d
Labrador Retrievers; [6]
  Max EE: 748 Kcal/Kg^0.75/d
  Mean EE: 671 Kcal/Kg^0.75/d
Labrador Retrievers; [7]
  Max EE: 716 Kcal/Kg^0.75/d
  Mean EE: 576 Kcal/Kg^0.75/d
Labrador Retrievers; [8]
  Max EE: 794 a Kcal/Kg^0.75/d
  Mean EE: 598 a Kcal/Kg^0.75/d
Labrador Retrievers; [9]
  Max EE: 637 ab Kcal/Kg^0.75/d
  Mean EE: 554 ab Kcal/Kg^0.75/d
Labrador Retrievers; [10]
  Max EE: 909 Kcal/Kg^0.75/d
  Mean EE: 801 Kcal/Kg^0.75/d
Labrador Retrievers; [11]
  Max EE: 961 Kcal/Kg^0.75/d
  Mean EE: 815 Kcal/Kg^0.75/d
Labrador Retrievers; [12]
  Max EE: 858 Kcal/Kg^0.75/d
  Mean EE: 788 Kcal/Kg^0.75/d
Skeletal protein; Ex.2 part two, 250 mg/d, male or female dogs
  % FSR of skeletal protein vs control: did not increase
Skeletal protein; Female, no run
  FSR: 5.04%
Skeletal protein; Female, run
  FSR: 2.54%
Skeletal protein; Male, no run
  FSR: 3.61%
Skeletal protein; Male, run
  FSR: 4.63%
